# Source: publication PMC4303146, “Investigation of cyanine dyes for in vivo optical imaging of altered mitochondrial membrane potential in tumors” (Cancer Medicine, 2014)
# Experiments:
# HeLa cells [1] = experiment: Cellular localization study (fluorescence microscopy with NAO mitochondria marker); type: cell-based, human; conditions: 1 μmol/L, 60 min, NAO 100 nmol/L
# Experimental: HeLa cells (3 × 10^5 cells) were cultured in a poly-L-lysine coated glass bottom dish for 24 h at 37°C before use. Cells were washed twice with phosphate-buffered saline (PBS) and then incubated with the IC7-1 derivative dissolved in dimethyl sulfoxide (DMSO) (1 μmol/L final concentration) in DMEM supplemented with 5% FBS and 1% penicillin and streptomycin for 60 min. To determine the dye localization, mitochondria were labeled with NAO (100 nmol/L final concentration) for 20 min before completion of the incubation with IC7-1 derivative. Next, the cells were washed twice each with DMEM and PBS. Cells were viewed with a fluorescence microscope under a 100× oil-immersion objective lens. MetaMorph® software (Molecular Devices, LLC, Sunnyvale, CA) was used for imaging analysis.
# HeLa cell xenograft = experiment: In vivo imaging study in HeLa cell xenograft mice; conditions: for Tumor fluorescence intensity group from ROI analysis / Liver accumulation and excretion: 10 nmol i.v.; for Liver accumulation and excretion: ventral imaging 3-72 h
# Experimental: Animal experiments were conducted in accordance with institutional guidelines and were approved by the Kyoto University Animal Care Committee. […] HeLa cells (2 × 10^6 cells in 100 μL of PBS) were subcutaneously inoculated into the right hind legs of mice. Fourteen days after implantation, mice were used for the imaging study.
# Clairvivo® OPT measurement and display software ver. 2.6.0.0. (SHIMADZU Co.) was used for imaging analysis.
# Exposure time was 5s for the scan at 3 h, and 3s for the other scans. Clairvivo® OPT measurement and display software ver. 2.6.0.0. (SHIMADZU Co., Kyoto, Japan) was used for imaging analysis.
# [2] = molecular target: T1, albumin-binding site I (warfarin-binding site) (Bos taurus, UniProt P02769); experiment: Protein-binding assay with competitive inhibitors in 5% FBS; type: in vitro ADME, bovine; conditions: 5% FBS, inhibitor 189 μmol/L, dye 1 μmol/L
# T1 construct: incubated for 30 min in PBS (pH 7.4) containing 5% DMSO and 5% FBS; from tissue; host or cells: fetal bovine serum (5% in PBS)
# Experimental: A protein-binding assay was conducted as reported previously. Briefly, warfarin, ibuprofen, digoxin, and quinidine were used as competitive inhibitors of albumin-binding sites I, II, III, and […], respectively. The inhibitors (0 and 189 μmol/L) were incubated for 30 min in PBS (pH 7.4) containing 5% DMSO and 5% FBS at room temperature. Immediately after the addition of the IC7-1 derivative (1 μmol/L final concentration), the fluorescence intensity was measured following the excitation at 823 nm and the emission from 840 to 900 nm. The normalized intensity (%) was calculated as a percentage of fluorescence intensity obtained from an inhibitor untreated sample.
# [3] = Photophysical properties (fluorescence spectroscopy, quantum yield); type: physicochemical
# Experimental: IC7-1 derivatives were dissolved in chloroform or 5% FBS to give a concentration of 1 μmol/L for fluorescence spectroscopy analysis. Excitation spectra were measured following the emission at 850 nm, and emission spectra were measured following excitation at 823 nm. Quantum yields were determined using a Fluorolog-3 spectrofluorometer equipped with an integrating sphere.
# BSA = BSA (Bos taurus, UniProt P02769); experiment: Association constants of IC7-1 derivatives to albumin (fluorimetric titration); type: binding, bovine; conditions: dye 1 µM, BSA 0-1.0 µM, 30 min; read-out: Ka, association constant of dye-albumin complex (converted)
# Experimental: Binding studies of IC7-1 derivatives to albumin were conducted as reported previously (Beckford G et al. The solvatochromic effects of side chain substitution on the binding interaction of novel tricarbocyanine dyes with human serum albumin. Talanta 2012;92: 45-52). Briefly, IC7-1 derivatives (1 µM final concentration) were incubated with BSA (0, 0.4, 0.6, 0.8, and 1.0 µM) for 30 min to equilibrate. The fluorescence intensity was measured following the excitation at 823 nm and the emission from 840 to 900 nm. The interaction between dye D and albumin A can be expressed by Eq. 1:
# The association constant for the dye-albumin complex formation can be expressed by Eq. 2:
# Then, the association constant Ka of the dye-albumin complex was calculated from the data for the fluorimetric titration of the dye with albumin using Eq. 3:
# 1/ΔF = 1/k[D] + (1/(k[D]Ka))·(1/[A]) (3)
# where k is a constant depending on the instrumentation and quantum efficiency of the process.
# Therefore, a plot of the reciprocal of ΔF versus the reciprocal of albumin concentration gives a straight line. The association constant was calculated by dividing the intercept by the slope of the line.
# HeLa cells [4] = experiment: Cellular uptake study with uncoupler CCCP; type: cell-based, human; conditions: dye 1 μmol/L, 60 min, CCCP 0-25 μmol/L
# Experimental: A cellular uptake study was conducted as reported previously. Briefly, the buffer solution (pH 7.4) for the cellular uptake study was composed of NaCl ([…]), KCl (5.4 mmol/L), CaCl2 (1.2 mmol/L), MgSO4 (0.8 mmol/L), NaH2PO4 (0.8 mmol/L), dextrose (5.6 mmol/L), and 4-(2-hydroxyethyl)-1-piperazineethanesulfonic acid) (5 mmol/L). HeLa cells (1 × 10^6 cells/mL buffer solution) were incubated with carbonyl […] m-chlorophenylhydrazone (CCCP; 0, 0.1, 0.25, 0.5, 0.75, 1, 2.5, 5, 10, and 25 μmol/L) for 5 min at 37°C in 1.5 mL microtubes, followed by the addition of the IC7-1 derivative (1 μmol/L final concentration). After a 60-min incubation with the IC7-1 derivative, the cells were washed twice and resuspended with buffer solution. The fluorescence intensity was measured following the excitation at 823 nm and the emission from 840 to 900 nm, and the normalized intensity (%) was calculated as a percentage of fluorescence intensity obtained with CCCP untreated (0 μmol/L) cells.
# The buffer solution (pH 7.4) for the cellular uptake study was composed of NaCl (145 mM), KCl (5.4 mM), CaCl2 (1.2 mM), MgSO4 (0.8 mM), NaH2PO4 (0.8 mM), dextrose (5.6 mM), and HEPES (5 mM). The HeLa cells (1 x 10^6 cells / ml buffer solution) were incubated with an uncoupler (CCCP; 0, 0.1, 0.25, 0.5, 0.75, 1, 2.5, 5, 10, and 25 µM) for 5 min at 37 °C in 1.5 mL microtubes, followed by the addition of IR-780 or IC7-1-Bu (1 µM final concentration) After a 60 min incubation with the dyes, the cells were washed twice and resuspended with buffer solution. Fluorescence intensity was measured following the excitation at 763 nm and the emission from 780 to 880 nm for IR-780, and the excitation at 823 nm and the emission from 840 to 900 nm for IC7-1-Bu. The normalized intensity (%) was calculated as a percentage of fluorescence intensity obtained with CCCP untreated (0 µM) cells.
# Sequence of BSA (P02769 25-607): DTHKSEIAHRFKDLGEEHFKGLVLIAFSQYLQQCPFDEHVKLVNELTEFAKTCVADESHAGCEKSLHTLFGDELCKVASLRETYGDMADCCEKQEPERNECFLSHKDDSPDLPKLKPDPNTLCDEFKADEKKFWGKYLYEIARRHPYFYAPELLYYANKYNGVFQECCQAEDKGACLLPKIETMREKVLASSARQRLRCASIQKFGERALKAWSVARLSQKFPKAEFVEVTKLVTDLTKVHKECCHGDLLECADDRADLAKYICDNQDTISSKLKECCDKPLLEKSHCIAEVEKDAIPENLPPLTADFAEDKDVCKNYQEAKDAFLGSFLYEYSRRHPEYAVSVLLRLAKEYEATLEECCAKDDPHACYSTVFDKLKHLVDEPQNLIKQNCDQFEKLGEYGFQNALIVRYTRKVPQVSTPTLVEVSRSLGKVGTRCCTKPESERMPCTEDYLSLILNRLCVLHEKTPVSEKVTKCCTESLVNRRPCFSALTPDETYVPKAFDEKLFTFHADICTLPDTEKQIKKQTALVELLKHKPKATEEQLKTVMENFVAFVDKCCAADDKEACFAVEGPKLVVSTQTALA
# T1 sequence (P02769 25-607): as above
Structure (SMILES),Subcellular localization of NIR fluorescence (HeLa cells [1]),Tumor fluorescence intensity group from ROI analysis (HeLa cell xenograft),"Tumor depiction in fluorescence images (HeLa cell xenograft; 10 nmol i.v., 24, 48 and 72 h)",Normalized fluorescence intensity with warfarin (albumin site I inhibitor) [2],"Φ, quantum yield ([3]; 5% FBS)","ε, extinction coefficient ([3]; 5% FBS) [mol/L/cm]","emmax, maximum emission wavelength ([3]; 5% FBS, 1 μmol/L) [nm]","exmax, maximum excitation wavelength ([3]; 5% FBS, 1 μmol/L) [nm]","Φ, quantum yield ([3]; CHCl3)","ε, extinction coefficient ([3]; CHCl3) [mol/L/cm]","emmax, maximum emission wavelength ([3]; CHCl3, 1 μmol/L) [nm]","exmax, maximum excitation wavelength ([3]; CHCl3, 1 μmol/L) [nm]",Kd (BSA) [µM],Normalized cellular fluorescence intensity under CCCP treatment (HeLa cells [4]),Liver accumulation and excretion (HeLa cell xenograft),"Fluorescence intensity at the tumor region (HeLa cell xenograft; 10 nmol i.v., 24, 48 and 72 h)"
"CCCN1/C(=C/C=C2\CCCC(/C=C/C3=[N+](CCC)c4ccc5ccccc5c4C3(C)C)=C2Cl)C(C)(C)c2c1ccc1ccccc21 [IC7-1-Pr, 3-Propyl-2-(2-{3-[2-(3-propyl-1,1-dimethyl-1,3-dihydro-benz[e]indol-2-ylidene)-ethylidene]-2-chloro-cyclohex-1-enyl}-vinyl)-1,1-dimethyl-1H-benz[e]indolium]",colocalized fluorescence with NAO,mild intensity group,Tumors were clearly depicted,specifically bound to albumin,0.05,130000,843,823,0.07,330000,845,823,0.417,reduced cellular fluorescence from treatment with a low CCCP concentration,,
"CCCN1/C(=C/C=C2\CCCC(/C=C/C3=[N+](CCC)c4ccccc4C3(C)C)=C2Cl)C(C)(C)c2ccccc21.[I-] [IR-780, reference compound]",,,,,,,,,,,,,,almost negligible effect of CCCP,,
"CCN1/C(=C/C=C2\CCCC(/C=C/C3=[N+](CC)c4ccc5ccccc5c4C3(C)C)=C2Cl)C(C)(C)c2c1ccc1ccccc21 [IC7-1-Et, 3-Ethyl-2-(2-{3-[2-(3-ethyl-1,1-dimethyl-1,3-dihydro-benz[e]indol-2-ylidene)-ethylidene]-2-chloro-cyclohex-1-enyl}-vinyl)-1,1-dimethyl-1H-benz[e]indolium]",colocalized fluorescence with NAO,negligible intensity group,negligible signals from the whole body,,0.04,130000,847,823,0.06,330000,842,823,0.556,,"accumulated in the liver, and were quickly excreted",
"CN1/C(=C/C=C2\CCCC(/C=C/C3=[N+](C)c4ccc5ccccc5c4C3(C)C)=C2Cl)C(C)(C)c2c1ccc1ccccc21 [IC7-1-Me, 3-Methyl-2-(2-{3-[2-(3-methyl-1,1-dimethyl-1,3-dihydro-benz[e]indol-2-ylidene)-ethylidene]-2-chloro-cyclohex-1-enyl}-vinyl)-1,1-dimethyl-1H-benz[e]indolium]",colocalized fluorescence with NAO,negligible intensity group,negligible signals from the whole body,,0.04,120000,846,823,0.07,330000,841,823,0.769,,"accumulated in the liver, and were quickly excreted",
"CCCCCCN1/C(=C/C=C2\CCCC(/C=C/C3=[N+](CCCCCC)c4ccc5ccccc5c4C3(C)C)=C2Cl)C(C)(C)c2c1ccc1ccccc21 [IC7-1-He, 3-Hexyl-2-(2-{3-[2-(3-hexyl-1,1-dimethyl-1,3-dihydro-benz[e]indol-2-ylidene)-ethylidene]-2-chloro-cyclohex-1-enyl}-vinyl)-1,1-dimethyl-1H-benz[e]indolium]",weak or negligible fluorescence in the NIR region,negligible intensity group,negligible signals from the whole body,,0.03,60000,841,823,0.06,330000,845,823,0.833,reduced cellular fluorescence from treatment with a low CCCP concentration,,weak at all time points
"CCCCCN1/C(=C/C=C2\CCCC(/C=C/C3=[N+](CCCCC)c4ccc5ccccc5c4C3(C)C)=C2Cl)C(C)(C)c2c1ccc1ccccc21 [IC7-1-Pe, 3-Pentyl-2-(2-{3-[2-(3-pentyl-1,1-dimethyl-1,3-dihydro-benz[e]indol-2-ylidene)-ethylidene]-2-chloro-cyclohex-1-enyl}-vinyl)-1,1-dimethyl-1H-benz[e]indolium]",weak or negligible fluorescence in the NIR region,mild intensity group,Tumors were clearly depicted,specifically bound to albumin,0.03,90000,847,823,0.06,330000,845,823,0.625,reduced cellular fluorescence from treatment with a low CCCP concentration,,
